Reference: US20050095287A1, “Fosinopril composition” (priority 2003, published 2005)

Assay: Solubility of the active drug (statement)
Format: physicochemical

CCC(=O)O[C@@H](O[P@](=O)(CCCCc1ccccc1)CC(=O)N1C[C@H](C2CCCCC2)C[C@H]1C(=O)O)C(C)C [Fosinipril, Fosinopril]
solubility: highly soluble
